Data published in US9765092B2, “Tricyclic piperidine compounds” (ACTELION PHARMACEUTICALS LTD, priority 2013, dated 2017).

Biological target: human TPH1 (Homo sapiens (Human), UniProt P17752)
Experiment: Biochemical in vitro assay using fluorescence readout (TPH1 inhibition)
[1] = full length human TPH1, 40 μM L-tryptophan, 15° C., 60 minutes, fluorescence at 540 nm, mean if determined several times
[2] = human TPH1, fluorescence readout

human TPH1, sequence (P17752 whole entry): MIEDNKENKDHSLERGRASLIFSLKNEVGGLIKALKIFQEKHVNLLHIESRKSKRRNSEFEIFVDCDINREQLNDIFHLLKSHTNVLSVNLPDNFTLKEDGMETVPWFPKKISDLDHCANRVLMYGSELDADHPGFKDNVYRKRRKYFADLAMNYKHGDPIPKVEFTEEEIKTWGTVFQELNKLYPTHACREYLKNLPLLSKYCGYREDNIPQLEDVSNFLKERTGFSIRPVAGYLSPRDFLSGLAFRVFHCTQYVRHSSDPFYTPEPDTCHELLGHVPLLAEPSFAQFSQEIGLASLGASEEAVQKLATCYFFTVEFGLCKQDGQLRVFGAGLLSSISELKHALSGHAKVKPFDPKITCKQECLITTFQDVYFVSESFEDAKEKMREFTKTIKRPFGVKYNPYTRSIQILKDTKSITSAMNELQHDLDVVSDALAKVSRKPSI

Structure (SMILES)	IC50 [1] [nM]	IC50 [2] [nM]
Cc1nn2c3c(nc2s1)CCN(C(=O)COc1ccc(N2CCOCC2)nc1Cl)C3c1cc(-c2nn[nH]n2)cs1 (stereo not shown) [Example 1.63.1, 1-(5-(4-(2H-Tetrazol-5-yl)thiophen-2-yl)-2-methyl-7,8-dihydro-[1,3,4]-thiadiazolo-[2′,3′:2,3]imidazo[4,5-c]pyridin-6(5H)-yl)-2-((2-chloro-6-morpholinopyridin-3-yl)oxy)ethanone]	23	
CNC(=O)c1ccc(OCC(=O)N2CCc3nc4sc(C)nn4c3C2c2ccc(Cl)cc2F)c(Cl)n1 (stereo not shown) [Example 1.4.21, 6-chloro-5-(2-(5-(4-chloro-2-fluorophenyl)-2-methyl-7,8-dihydro-[1,3,4]thiadiazolo[2′,3′:2,3]imidazo[4,5-c]pyridin-6(5H)-yl)-2-oxoethoxy)-N-methylpicolinamide]		5
Cc1nn2c3c(nc2s1)CCN(C(=O)COc1ccc(N(C)C)nc1C)C3c1ccc(C2CC2)cc1F (stereo not shown) [Example 1.6.15, 1-(5-(4-cyclopropyl-2-fluorophenyl)-2-methyl-7,8-dihydro-[1,3,4]thiadiazolo[2′,3′:2,3]imidazo[4,5-c]pyridin-6(5H)-yl)-2-((6-(dimethylamino)-2-methylpyridin-3-yl)oxy)ethanone]		6
Cc1nn2c3c(nc2s1)CCN(C(=O)COc1ccc(N2C(C)CCC2C)nc1Cl)C3c1ccc(Cl)cc1F (stereo not shown) [Example 1.4.15, 1-(5-(4-chloro-2-fluorophenyl)-2-methyl-7,8-dihydro-[1,3,4]thiadiazolo[2′,3′:2,3]imidazo[4,5-c]pyridin-6(5H)-yl)-2-((2-chloro-6-(2,5-dimethylpyrrolidin-1-yl)pyridin-3-yl)oxy)ethanone]	6	
CCc1nn2c3c(nc2s1)CCN(C(=O)COc1ccc(N2CCN(C)CC2)nc1Cl)C3c1ccc(Cl)cc1F (stereo not shown) [Example 3.1.4, 1-(5-(4-chloro-2-fluorophenyl)-2-ethyl-7,8-dihydro-[1,3,4]thiadiazolo[2′,3′:2,3]imidazo[4,5-c]pyridin-6(5H)-yl)-2-((2-chloro-6-(4-methylpiperazin-1-yl)pyridin-3-yl)oxy)ethanone]		10
Cc1ccc(C2c3c(nc4sccn34)CCN2C(=O)COc2ccc(Cl)cc2C)c(F)c1 (stereo not shown) [Example 6.10.1, 2-(4-chloro-2-methylphenoxy)-1-(5-(2-fluoro-4-methyl-phenyl)-7,8-dihydrothiazolo[2′,3′:2,3]imidazo[4,5-c]-pyridin-6(5H)-yl)ethanone]		5
Cc1nn2c3c(nc2s1)CCN(C(=O)COc1ccc(NS(C)(=O)=O)nc1Cl)C3c1ncc(F)cc1C (stereo not shown) [Example 1.75.1, N-(6-chloro-5-(2-(5-(5-fluoro-3-methylpyridin-2-yl)-2-methyl-7,8-dihydro-[1,3,4]thiadiazolo[2′,3′:2,3]imidazo[4,5-c]pyridin-6(5H)-yl)-2-oxoethoxy)pyridin-2-yl)methanesulfonamide]		9
CN(C)C(=O)c1cc(F)c(C2c3c(nc4sccn34)CCN2C(=O)COc2ccc(NS(C)(=O)=O)cc2Cl)s1 (stereo not shown) [Example 6.9.1, 5-(6-(2-(2-chloro-4-(methylsulfonamido)phenoxy)-acetyl)-5,6,7,8-tetrahydrothiazolo[2′,3′:2,3]imidazo[4,5-c]pyridin-5-yl)-4-fluoro-N,N-dimethylthiophene-2-carboxamide]		2
CCc1cc(Cl)ccc1OCC(=O)N1CCc2nc3sc(C)nn3c2C1c1ccc(C2CC2)cc1F (stereo not shown) [Example 1.6.7, 2-(4-chloro-2-ethylphenoxy)-1-(5-(4-cyclopropyl-2-fluorophenyl)-2-methyl-7,8-dihydro-[1,3,4]thiadiazolo[2′,3′:2,3]imidazo[4,5-c]pyridin-6(5H)-yl)ethanone]		7
Cc1nn2c3c(nc2s1)CCN(C(=O)COc1ccc(C(F)(F)F)cc1Cl)C3c1scnc1C (stereo not shown) [Example 1.32.3, 2-(2-chloro-4-(trifluoromethyl)phenoxy)-1-(2-methyl-5-(4-methylthiazol-5-yl)-7,8-dihydro-[1,3,4]thiadiazolo [2′,3′:2,3]imidazo[4,5-c]pyridin-6(5H)-yl)ethanone]		10
